This note sets out measurements from ChEMBL document CHEMBL2311267, “Design, synthesis and biological evaluation of glucose-containing scutellarein derivatives as neuroprotective agents based on metabolic mechanism of scutellarin in vivo” (Bioorg Med Chem Lett, 2013).

Data set [1] has as its system Plasma. Kind of data set: Anticoagulant activity in New Zealand white rabbit platelet-poor plasma assessed as activated partial thromboplastin time at 100 uM. The data set is classed as functional, Oryctolagus cuniculus.
Data set [2] concerns Plasma. Kind of data set: Anticoagulant activity in New Zealand white rabbit platelet-poor plasma assessed as prothrombin time at 100 uM. The class given is functional, Oryctolagus cuniculus.
The nature of data set [3]: Aqueous solubility of the compound by UV-Vis spectrophotometric analysis. The class given is physicochemical. The settings on record: water.
Data set [4] has as its system Plasma. Kind of data set: Anticoagulant activity in New Zealand white rabbit platelet-poor plasma assessed as fibrinogen content at 100 uM. The class given is functional, Oryctolagus cuniculus.
In data set [5] the test system is PC-12. Briefly: Neuroprotective activity in rat PC12 cells assessed as inhibition of H2O2-induced cytotoxicity at 50 uM after 3 hrs by MTT assay relative to control. As to conditions: PC-12, 3 h. The class given is functional.
Data set [6] relates to Radical scavenging activity. Briefly: Antioxidant activity assessed as inhibition of DPPH-radical production. The class given is functional. (In general: DPPH is a stable violet radical that fades when it is reduced.)
The subject of data set [7] is Plasma. Briefly: Anticoagulant activity in New Zealand white rabbit platelet-poor plasma assessed as thrombin time at 100 uM. The class given is functional, Oryctolagus cuniculus.
Data set [8] has as its system PC-12. Briefly: Neuroprotective activity in rat PC12 cells assessed as inhibition of H2O2-induced cytotoxicity at 25 uM after 3 hrs by MTT assay relative to control. The data set is classed as functional. The settings on record: PC-12, 3 h. A general note: Tetrazolium assays rely on reduction of a dye to a coloured formazan, in cell work by metabolically active cells.

≈ marks a conversion by molar mass, not a printed value.

For `O=c1cc(-c2ccc(O)cc2)oc2cc(O[C@@H]3O[C@H](CO)[C@@H](O)[C@H](O)[C@H]3O)c(O)c(O)c12`, the APTT with Plasma [1] is on record as 43.06 s. For the same compound, the PT in the data set with Plasma [2] is 7.81 s. Besides, the solubility in data set [3] is 7.85 µM (≈ 3.52 µg/mL). The Activity with Plasma [4] was found to be 32.43 g/L. Further, in the data set with PC-12 [5], the inhibition at 50 µM was determined as 79.9%. For the same compound, the 50% inhibitory concentration (IC50) in data set [6] came out at 25.3 µM. In addition, the TT in the data set on Plasma [7] was determined as 18.13 s. In the data set with PC-12 [8], the inhibition at 25 µM was 65.5%.
Take `O=C(O)[C@H]1O[C@@H](Oc2cc3oc(-c4ccc(O)cc4)cc(=O)c3c(O)c2O)[C@H](O)[C@@H](O)[C@@H]1O` [SCUTELLARIN]: the APTT in the data set with Plasma [1] was 33.06 s. Moreover, the PT with Plasma [2] stood at 6.91 s. In data set [3], the concentration in solution (solubility) was 7.53 µM (≈ 3.48 µg/mL). Besides, the Activity in the data set on Plasma [4] turned out to be 37.96 g/L. Further, the inhibition at 50 µM in the data set on PC-12 [5] was 78.8%. In addition, the half-inhibitory concentration (IC50) in data set [6] amounted to 26.8 µM. Also, the TT in the data set with Plasma [7] came to 21.35 s. Also, the inhibition at 25 µM in the data set on PC-12 [8] stood at 52.6%.
For `O=c1cc(-c2ccc(O)cc2)oc2cc(O[C@@H]3O[C@H](CO)[C@H](O)[C@H](O)[C@H]3O)c(O)c(O)c12`, the APTT in the data set on Plasma [1] is reported as 39.62 s. For the same compound, the PT in the data set on Plasma [2] was 9.93 s. In data set [3], this compound gave a solubility of 8.93 µM (≈ 4 µg/mL). In addition, the Activity in the data set with Plasma [4] stood at 20.81 g/L. Further, in the data set on PC-12 [5], the inhibition at 50 µM is 83.3%. Moreover, in data set [6], the concentration for half-maximal inhibition (IC50) was found to be 28.4 µM. For the same compound, the TT in the data set on Plasma [7] came out at 29.17 s. Also, in the data set on PC-12 [8], the inhibition at 25 µM worked out at 61%.
On to `O=c1cc(-c2ccc(O)cc2)oc2cc(O[C@@H]3O[C@H](CO)[C@@H](O)[C@H](O)[C@@H]3O)c(O)c(O)c12`, for which the APTT in the data set on Plasma [1] is 38.2 s. The PT in the data set with Plasma [2] amounted to 6.57 s. The solubility in data set [3] came to 8.19 µM (≈ 3.67 µg/mL). Besides, the Activity in the data set on Plasma [4] worked out at 26.68 g/L. Moreover, in the data set on PC-12 [5], the inhibition at 50 µM was determined as 56.4%. For the same compound, in data set [6], the IC50 came out at 34.9 µM. For the same compound, in the data set on Plasma [7], the TT came out at 20.54 s. Besides, the inhibition at 25 µM in the data set with PC-12 [8] turned out to be 23.5%.

For orientation: solubility means the dissolved amount per volume that the medium holds. A high value points to a readily soluble substance. For orientation: inhibition means the relative decrease from the control value, in per cent. Broadly, the IC50 is the concentration that gives 50% inhibition.
